Assay results: PMC12467234, “Label-Free and Ultrasensitive APE1 Detection Based on Hybridization Chain Reaction Combined with G-Quadruplex” (Biomolecules, 2025)
Read-outs that look alike come from different tables or passages of the source.

Target: T1, Apurinic/apyrimidinic endonuclease 1 (APE1) (Homo sapiens, UniProt P27695)
T1 construct: gene APEX1
Assay: fluorescent HCR/G-quadruplex-ThT assay of AP-site cleavage by purchased APE1; also in cell lysates
Format: biochemical

T1 sequence (P27695 2-318): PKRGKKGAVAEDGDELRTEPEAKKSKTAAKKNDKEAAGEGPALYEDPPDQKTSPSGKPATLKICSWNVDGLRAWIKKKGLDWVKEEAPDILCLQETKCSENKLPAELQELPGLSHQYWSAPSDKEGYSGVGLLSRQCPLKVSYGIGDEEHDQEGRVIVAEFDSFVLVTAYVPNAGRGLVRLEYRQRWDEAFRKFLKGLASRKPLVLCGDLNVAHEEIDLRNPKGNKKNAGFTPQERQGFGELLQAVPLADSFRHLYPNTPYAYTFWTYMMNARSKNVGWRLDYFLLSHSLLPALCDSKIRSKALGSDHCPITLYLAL

IC50 (read-out: IC50) [µM] | Structure (SMILES) | IC50 [µM]
~75 | CO/N=C(\C(=O)N[C@@H]1C(=O)N2C(C(=O)O)=C(COC(C)=O)CS[C@H]12)c1csc(N)n1 [cefotaxime sodium] | 
 | O=C(O)c1cc2cccc([N+](=O)[O-])c2[nH]1 [NCA, 7-nitroindole-2-carboxylic acid] | ~3.5
